Assay results taken from ChEMBL document CHEMBL1201862, “PubChem BioAssay data set” (2004).
Activity calls are given as the source filed them.

Assays:
Estrogen receptor = Estrogen receptor (Homo sapiens, UniProt P03372);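 also: potency for inhibiting coactivator peptide recruitment to the receptor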
[1] = target: T1, Calpain-2 catalytic subunit (Sus scrofa, UniProt P43367); assay: m-calpain protease blockers, concentration series – biochemical, fluorogenic peptide substrate, dose response (AID 1420); format: functional
T1 sequence (P43367 whole entry): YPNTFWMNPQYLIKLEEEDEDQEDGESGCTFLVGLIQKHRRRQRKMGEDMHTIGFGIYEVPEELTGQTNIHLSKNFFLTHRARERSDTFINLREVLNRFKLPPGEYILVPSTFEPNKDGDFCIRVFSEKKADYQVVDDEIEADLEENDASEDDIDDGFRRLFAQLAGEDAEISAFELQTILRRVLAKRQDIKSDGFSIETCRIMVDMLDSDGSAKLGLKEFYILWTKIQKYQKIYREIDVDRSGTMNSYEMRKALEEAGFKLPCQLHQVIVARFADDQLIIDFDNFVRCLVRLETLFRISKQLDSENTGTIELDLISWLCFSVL

[2] = luciferase reporter signal suppression in cells – H4 neuroglioma cells, luminescence, dose response (AID 1990); format: functional, cell-based
[3] = alpha-synuclein stem-loop luciferase translation blockers – H4 neuroglioma cells, luminescence, confirmation (AID 1988); format: functional, cell-based
[4] = Luminescence Cell-Based Dose Response HTS to Identify Inhibitors of 5'UTR Stem-Loop Driven Prion Protein mRNA Translation in H4 Neuroglioblastoma Cells. [Related pubchem assays: 1827 (Project Summary), 1813 (Primary HTS)]; format: functional
[5] = CCR5-tropic HIV-1 fusion blockers – cell-based, CCR5-tropic Env, dose response (AID 2279); format: functional
[6] = viability inhibitors of stage V gametocytes – luminescence, dose response (AID 1117278); format: functional, cell-based;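 also: gametocytes exposed to compound for 24 hours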
[7] = target: Neuropeptide Y receptor type 1 (Homo sapiens, UniProt P25929); assay: Fluorescence-based counterscreen for agonists of NPY-Y2: cell-based high-throughput dose response assay for agonists of NPY-Y1.; format: functional
[8] = target: Neuropeptide Y receptor type 2 (Homo sapiens, UniProt P49146); assay: Fluorescence-based cell-based high-throughput dose response assay for agonists of NPY-Y2. [Related pubchem assays: 1703 (Screening assay (CNGC inhibitors).), 1359 (Screening assay (NPY-Y2 potentiators or agonists).), 1304 (Screening assay (NPY-Y1 potentiators or agonists).), 1710 (Screening assay (NPY-Y2 agonists).), 1791 (Summary AID.)]; format: functional
[9] = viability loss in human Jurkat cells – cell-based, luminescence, cytotoxicity control for P. falciparum gametocyte viability project, dose response (AID 1117277); format: functional;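 also: potency reflects loss of cellular ATP meaning fewer viable cells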
HEK293 = assay: Fluorescence-based counterscreen for potentiators or agonists of NPY-Y2: cell-based high-throughput dose response assay to identify inhibitors of cyclic nucleotide gated ion channel (CNGC) activity. In this assay, the parental HEK293 cell line transfected with a cyclic-nucleotide gated ion channel (CNGC)-based cAMP sensor is used to measure inhibition of isoproterenol-induced CNGC activity by test compound.; format: functional; conditions: Homo sapiens;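 also: stimulus is 1 µM isoproterenol at EC100 plus PDE inhibitor Ro 20-1724 at 25 µM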
Oxytocin receptor = Oxytocin receptor (Homo sapiens, UniProt P30559); assay: Fluorescence-based cell-based high throughput dose response assay for agonists of the Oxytocin Receptor (OXTR). [Related pubchem assays: 2435 (Primary screen (OXTR agonists in singlicate)), 434991 (Counterscreen (V1R agonists in triplicate)), 2482 (Summary (OXTR agonists)), 434963 (Confirmation screen (OXTR agonists in triplicate))]; format: functional
[10] = Luminescence Cell-Based Dose Retest to Confirm Inhibitors of Cancer Stem Cells. [Related pubchem assays (depositor defined):AID2717, AID2721]; format: functional; conditions: Homo sapiens
Vasopressin V1a receptor = Vasopressin V1a receptor (Homo sapiens, UniProt P37288); assay: Counterscreen for Oxytocin Receptor (OXTR) agonists: Fluorescence-based cell-based high throughput dose response assay to identify agonists of the vasopressin 1 receptor (V1R). [Related pubchem assays: 2435 (Primary screen (OXTR agonists in singlicate)), 434991 (Counterscreen (V1R agonists in triplicate)), 2482 (Summary (OXTR agonists)) …; format: functional
[11] = nonselective StAR promoter luciferase inhibitors – cell-based, luminescence, luciferase reporter, counter-screen for LRH-1 inverse agonist project, dose response (AID 651969); format: functional
[12] = target: Nuclear receptor subfamily 5 group A member 2 (Homo sapiens, UniProt O00482); format: functional, cell-based;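 also: HEK293T cells transfected with LRH-1 and a StAR promoter luciferase reporter; potency for inhibitors that lower LRH-1 driven reporter light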
[13] = mitochondrial function rescue without frataxin homolog – Friedreich's ataxia, plus single-dose screen, dose response (AID 1465); format: functional;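 also: yeast depleted of Yfh1p frataxin homolog grown on glycerol needing respiration; WST-1 tetrazolium dye reduction as measure of cellular dehydrogenase metabolic activity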
Steroidogenic factor 1 = Steroidogenic factor 1 (Homo sapiens, UniProt Q13285); assay: Counterscreen for inverse agonists of the liver receptor homolog-1 (LRH-1; NR5A2): Luminescence-based cell-based high throughput dose response assay to identify inverse agonists of the Steroidogenic Factor 1 Nuclear Receptor (SF1; NR5A1).; format: functional
[14] = alpha-synuclein stem-loop translation blockers – luminescence, H4 neuroglioblastoma cells, dose confirmation, confirmation (AID 2454); format: functional, cell-based;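 also: H4 neuroglioblastoma cells carrying an alpha-synuclein 5'UTR luciferase reporter; potency for inhibition of the luciferase signal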
[15] = luciferase reporter signal reduction – luminescence, H4-C neuroglioblastoma cells, dose response (AID 2458); format: functional, cell-based;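 also: H4 neuroglioblastoma cells stably carrying a luciferase reporter gene fusion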
cells = format: functional, cell-based
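For AC50 in this document: cells exposed to compound for roughly 70 hours or longer before luminescence read.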

Chain of Steroidogenic factor 1 (Q13285 whole entry): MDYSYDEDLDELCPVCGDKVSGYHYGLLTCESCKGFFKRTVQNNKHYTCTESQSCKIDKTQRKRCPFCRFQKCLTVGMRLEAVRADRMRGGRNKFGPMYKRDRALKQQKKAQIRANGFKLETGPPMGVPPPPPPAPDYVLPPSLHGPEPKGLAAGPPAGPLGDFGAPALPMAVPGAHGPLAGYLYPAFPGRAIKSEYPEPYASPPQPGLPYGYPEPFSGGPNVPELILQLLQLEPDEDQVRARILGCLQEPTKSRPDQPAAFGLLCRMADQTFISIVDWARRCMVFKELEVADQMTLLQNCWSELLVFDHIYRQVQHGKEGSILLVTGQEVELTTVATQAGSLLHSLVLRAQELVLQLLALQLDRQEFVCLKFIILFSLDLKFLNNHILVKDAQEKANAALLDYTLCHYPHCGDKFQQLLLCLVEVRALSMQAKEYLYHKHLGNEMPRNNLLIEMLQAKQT
Chain of Neuropeptide Y receptor type 2 (P49146 whole entry): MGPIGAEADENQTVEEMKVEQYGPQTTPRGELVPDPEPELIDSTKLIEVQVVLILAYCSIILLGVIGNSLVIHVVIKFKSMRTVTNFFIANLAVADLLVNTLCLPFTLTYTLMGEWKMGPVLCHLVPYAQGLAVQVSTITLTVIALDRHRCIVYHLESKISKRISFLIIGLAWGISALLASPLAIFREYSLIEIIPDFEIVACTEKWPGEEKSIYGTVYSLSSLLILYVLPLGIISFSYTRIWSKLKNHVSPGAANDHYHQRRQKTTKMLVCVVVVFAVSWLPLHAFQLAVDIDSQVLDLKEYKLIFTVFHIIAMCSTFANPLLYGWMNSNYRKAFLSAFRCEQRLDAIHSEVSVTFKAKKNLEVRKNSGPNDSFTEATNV
Chain of Oxytocin receptor (P30559 whole entry): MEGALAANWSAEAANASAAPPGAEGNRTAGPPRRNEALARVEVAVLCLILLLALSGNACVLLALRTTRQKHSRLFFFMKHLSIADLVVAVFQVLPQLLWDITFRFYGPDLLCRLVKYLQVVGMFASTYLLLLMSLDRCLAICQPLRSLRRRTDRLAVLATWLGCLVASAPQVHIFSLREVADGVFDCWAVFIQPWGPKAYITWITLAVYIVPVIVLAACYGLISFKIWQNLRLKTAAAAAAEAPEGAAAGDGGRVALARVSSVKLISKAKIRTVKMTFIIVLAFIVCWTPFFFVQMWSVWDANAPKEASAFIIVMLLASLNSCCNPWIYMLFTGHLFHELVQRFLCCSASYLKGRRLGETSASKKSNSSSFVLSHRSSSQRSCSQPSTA
Chain of Estrogen receptor (P03372 whole entry): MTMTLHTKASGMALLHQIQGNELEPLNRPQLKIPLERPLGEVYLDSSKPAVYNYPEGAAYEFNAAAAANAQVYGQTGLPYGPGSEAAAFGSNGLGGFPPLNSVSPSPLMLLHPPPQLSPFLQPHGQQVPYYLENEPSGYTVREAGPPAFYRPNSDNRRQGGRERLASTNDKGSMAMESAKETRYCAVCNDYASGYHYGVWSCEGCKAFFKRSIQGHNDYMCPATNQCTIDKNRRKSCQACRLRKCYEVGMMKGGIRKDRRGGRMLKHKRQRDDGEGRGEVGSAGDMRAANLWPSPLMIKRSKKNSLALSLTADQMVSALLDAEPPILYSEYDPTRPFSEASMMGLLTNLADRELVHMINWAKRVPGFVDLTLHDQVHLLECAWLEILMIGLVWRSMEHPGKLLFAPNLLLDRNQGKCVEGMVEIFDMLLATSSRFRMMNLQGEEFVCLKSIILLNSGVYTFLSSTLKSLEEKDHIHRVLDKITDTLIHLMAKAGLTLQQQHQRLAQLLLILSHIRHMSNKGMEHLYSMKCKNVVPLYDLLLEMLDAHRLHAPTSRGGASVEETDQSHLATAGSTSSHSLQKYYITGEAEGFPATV
Chain of Vasopressin V1a receptor (P37288 whole entry): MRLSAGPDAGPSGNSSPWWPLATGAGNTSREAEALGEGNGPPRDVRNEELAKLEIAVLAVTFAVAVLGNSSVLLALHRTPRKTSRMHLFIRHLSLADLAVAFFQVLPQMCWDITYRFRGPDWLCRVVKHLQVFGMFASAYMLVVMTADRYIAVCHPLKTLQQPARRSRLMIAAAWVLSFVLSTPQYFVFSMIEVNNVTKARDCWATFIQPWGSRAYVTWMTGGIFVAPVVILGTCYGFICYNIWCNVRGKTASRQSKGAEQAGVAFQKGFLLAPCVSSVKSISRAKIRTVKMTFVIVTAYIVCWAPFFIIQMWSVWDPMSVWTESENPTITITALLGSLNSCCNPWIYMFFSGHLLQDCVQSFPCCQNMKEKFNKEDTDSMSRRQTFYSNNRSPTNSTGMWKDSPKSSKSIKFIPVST
Chain of Neuropeptide Y receptor type 1 (P25929 whole entry): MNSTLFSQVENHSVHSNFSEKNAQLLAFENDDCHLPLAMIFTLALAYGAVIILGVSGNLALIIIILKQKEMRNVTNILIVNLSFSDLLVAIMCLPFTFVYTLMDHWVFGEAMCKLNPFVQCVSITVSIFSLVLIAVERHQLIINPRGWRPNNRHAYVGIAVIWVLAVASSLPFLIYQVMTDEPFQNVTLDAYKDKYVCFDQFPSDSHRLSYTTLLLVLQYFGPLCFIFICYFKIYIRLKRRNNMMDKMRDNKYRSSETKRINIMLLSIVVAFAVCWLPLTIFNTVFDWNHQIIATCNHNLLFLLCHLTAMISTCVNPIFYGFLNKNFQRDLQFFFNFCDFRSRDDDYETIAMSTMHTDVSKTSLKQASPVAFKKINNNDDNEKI
Chain of Nuclear receptor subfamily 5 group A member 2 (O00482 whole entry): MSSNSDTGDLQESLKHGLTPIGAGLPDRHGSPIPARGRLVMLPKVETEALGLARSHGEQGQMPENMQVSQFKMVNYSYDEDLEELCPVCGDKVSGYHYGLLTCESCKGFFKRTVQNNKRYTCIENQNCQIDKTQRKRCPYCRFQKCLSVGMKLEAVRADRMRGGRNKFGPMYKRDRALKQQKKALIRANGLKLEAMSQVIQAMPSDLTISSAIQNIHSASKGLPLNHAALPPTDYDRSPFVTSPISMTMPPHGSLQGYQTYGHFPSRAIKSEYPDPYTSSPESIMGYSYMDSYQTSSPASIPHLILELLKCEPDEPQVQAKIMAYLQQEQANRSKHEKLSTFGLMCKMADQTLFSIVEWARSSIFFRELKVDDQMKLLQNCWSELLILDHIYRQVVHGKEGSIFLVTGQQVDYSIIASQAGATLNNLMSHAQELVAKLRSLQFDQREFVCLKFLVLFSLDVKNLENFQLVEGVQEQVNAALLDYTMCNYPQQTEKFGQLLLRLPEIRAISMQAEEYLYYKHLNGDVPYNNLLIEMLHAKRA

Cc1nnc(Oc2ccccc2F)c2ccccc12
IC50 (Estrogen receptor): 30 µM (active)
IC50 [1]: > 50 µM (not active)

O=C(OCC1OC(n2ncc(=O)[nH]c2=O)C(OC(=O)c2ccccc2)C1OC(=O)c1ccccc1)c1ccccc1 (centres undefined)
EC50 [2]: 13.5 µM (active)
EC50 [3]: > 120 µM (not active)
EC50 [4]: 17.7 µM (active)
IC50 [5]: 12.2 µM (active)

O=C(O)c1ccc(OCc2cn3ccccc3n2)cc1
IC50 [6]: > 109 µM (inactive)
EC50 [7]: > 35.4 µM (not active)
EC50 [8]: > 35.4 µM (not active)
IC50 [9]: > 83.2 µM (inactive)
EC50 (HEK293): > 35.4 µM (not active)

CC1(C)CC[C@@]2(C(=O)O)C(C1)C1=CCC3[C@@]4(C)CC[C@H](O)C(C)(C)C4CC[C@@]3(C)[C@]1(C)C[C@H]2O (some centres undefined)
EC50 (Oxytocin receptor): 2.67 µM (active)
AC50 [10]: 7.33 µM (active)
EC50 (Vasopressin V1a receptor): 2.33 µM (active)

CC1CC(C)CN(c2cc(N(C)CCO)c([N+](=O)[O-])c3nonc23)C1 (centres undefined)
IC50 [11]: 35.9 µM (inactive)
IC50 [12]: 6.21 µM (active)
EC50 [13]: > 100 µM (active)
IC50 (Steroidogenic factor 1): 2.15 µM (active)

CC(C)(C)c1ccc(Oc2ccc(N)cn2)cc1 [LIMANTRAFIN]
EC50 [14]: 1.05 µM (active)
EC50 [2]: < 0.1 µM (active)
EC50 [3]: < 0.1 µM (active)
EC50 [4]: 5.68 µM (active)
EC50 [15]: 0.803 µM (active)
EC50 (cells): 2.75 µM (active)
